# Assay results from patent US12077503B2, “Substituted cyclic amides and their use as herbicides” (FMC CORPORATION, priority 2015, dated 2024).
# Key:
# Type in all cases: in vivo
# Kochia (Kochia scoparia) [1] = assay: Test A preemergence; details: Bassia scoparia, pre-emergence, 240 h, 0 to 100 scale where 0 is no effect and 100 is complete control, read-out: Kochia plant response rating; for pest or weed control at 31 g/ha: 31 g ai/ha, Preemergence; for pest or weed control at 125 g/ha: 125 g ai/ha, preemergence, visual injury rating, approximately 10 d
# Summary of the method: (§1)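 Visual injury scores from 0, no effect, to 100, complete control, were assigned versus untreated controls roughly 10 d after treatment in the greenhouse. Test chemicals, formulated with surfactant in a non-phytotoxic solvent, were applied to planted seeds as a preemergence soil spray or postemergence to one- to two-leaf plants 2 to 10 cm tall, in loam–sand soil.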
# [2] = tested on: barnyardgrass (Echinochloa crus-galli); assay: Test A preemergence; details: Echinochloa crus-galli, pre-emergence, 240 h, 0 to 100 scale where 0 is no effect and 100 is complete control, read-out: Barnyardgrass plant response rating; for pest or weed control at 31 g/ha: 31 g ai/ha, Preemergence; for pest or weed control at 125 g/ha: 125 g ai/ha, preemergence, visual injury rating, approximately 10 d
# Summary of the method: as §1
# [3] = tested on: giant foxtail (Setaria faberii); assay: Test A preemergence; details: Setaria faberi, pre-emergence, 240 h, 0 to 100 scale where 0 is no effect and 100 is complete control, read-out: Foxtail, Giant plant response rating; for pest or weed control at 31 g/ha: 31 g ai/ha, Preemergence; for pest or weed control at 125 g/ha: 125 g ai/ha, preemergence, visual injury rating, approximately 10 d
# Summary of the method: as §1
# [4] = tested on: pigweed (Amaranthus retroflexus); assay: Test A preemergence; details: Amaranthus retroflexus, pre-emergence, 240 h, 0 to 100 scale where 0 is no effect and 100 is complete control, read-out: Pigweed plant response rating; for pest or weed control at 31 g/ha: 31 g ai/ha, Preemergence; for pest or weed control at 125 g/ha: 125 g ai/ha, preemergence, visual injury rating, approximately 10 d
# [5] = tested on: ragweed (common ragweed, Ambrosia elatior); assay: Test A preemergence; details: Ambrosia artemisiifolia, pre-emergence, 240 h, 0 to 100 scale where 0 is no effect and 100 is complete control, read-out: Ragweed plant response rating; for pest or weed control at 31 g/ha: 31 g ai/ha, Preemergence; for pest or weed control at 125 g/ha: 125 g ai/ha, preemergence, visual injury rating, approximately 10 d
# Summary of the method: as §1
# [6] = tested on: ryegrass, Italian (Italian ryegrass, Lolium multiflorum); assay: Test A preemergence; details: Lolium multiflorum, pre-emergence, 240 h, 0 to 100 scale where 0 is no effect and 100 is complete control, read-out: Ryegrass, Italian plant response rating; for pest or weed control at 31 g/ha: 31 g ai/ha, Preemergence; for pest or weed control at 125 g/ha: 125 g ai/ha, preemergence, visual injury rating, approximately 10 d
# Summary of the method: as §1
# [7] = tested on: Galium (catchweed bedstraw, Galium aparine); assay: Test A postemergence; details: Galium, post-emergence, 240 h, Postemergence, read-out: Galium plant response rating (0 to 100 scale); for pest or weed control at 125 g/ha: 125 g ai/ha, visual rating about 10 d after treatment; for pest or weed control at 31 g/ha: 31 g ai/ha, 0 is no effect, 100 is complete control
# Summary of the method: as §1
# Kochia (Kochia scoparia) [8] = assay: Test A postemergence; details: Bassia scoparia, post-emergence, 240 h, Postemergence, read-out: Kochia plant response rating (0 to 100 scale); for pest or weed control at 125 g/ha: 125 g ai/ha, visual rating about 10 d after treatment; for pest or weed control at 31 g/ha: 31 g ai/ha, 0 is no effect, 100 is complete control
# Summary of the method: as §1
# [9] = tested on: barnyardgrass (Echinochloa crus-galli); assay: Test A postemergence; details: Echinochloa crus-galli, post-emergence, 240 h, Postemergence; for pest or weed control at 125 g/ha: 125 g ai/ha, visual rating about 10 d after treatment, read-out: Barnyardgrass plant response rating (0 to 100 scale, 0 no effect, 100 complete control); for pest or weed control at 31 g/ha: 31 g ai/ha, 0 is no effect, 100 is complete control, read-out: Barnyardgrass plant response rating (0 to 100 scale)
# Summary of the method: as §1
# [10] = tested on: blackgrass (Alopecurus myosuroides); assay: Test A postemergence; details: Alopecurus myosuroides, post-emergence, 240 h, Postemergence, read-out: Blackgrass plant response rating (0 to 100 scale); for pest or weed control at 125 g/ha: 125 g ai/ha, visual rating about 10 d after treatment; for pest or weed control at 31 g/ha: 31 g ai/ha, 0 is no effect, 100 is complete control
# Summary of the method: as §1
# corn (Zea mays) = assay: Test A postemergence; details: Zea mays, post-emergence, 240 h, Postemergence, read-out: Corn plant response rating (0 to 100 scale); for plant injury at 125 g/ha: 125 g ai/ha, visual rating about 10 d after treatment; for plant injury at 31 g/ha: 31 g ai/ha, 0 is no effect, 100 is complete control
# Summary of the method: as §1
# [11] = tested on: giant foxtail (Setaria faberii); assay: Test A postemergence; details: Setaria faberi, post-emergence, 240 h, Postemergence, read-out: Foxtail, Giant plant response rating (0 to 100 scale); for pest or weed control at 125 g/ha: 125 g ai/ha, visual rating about 10 d after treatment; for pest or weed control at 31 g/ha: 31 g ai/ha, 0 is no effect, 100 is complete control
# Summary of the method: as §1
# [12] = tested on: pigweed (Amaranthus retroflexus); assay: Test A postemergence; details: Amaranthus retroflexus, post-emergence, 240 h, Postemergence, read-out: Pigweed plant response rating (0 to 100 scale); for pest or weed control at 125 g/ha: 125 g ai/ha, visual rating about 10 d after treatment; for pest or weed control at 31 g/ha: 31 g ai/ha, 0 is no effect, 100 is complete control
# Summary of the method: as §1
# [13] = tested on: ragweed (common ragweed, Ambrosia elatior); assay: Test A postemergence; details: Ambrosia artemisiifolia, post-emergence, 240 h, Postemergence, read-out: Ragweed plant response rating (0 to 100 scale); for pest or weed control at 125 g/ha: 125 g ai/ha, visual rating about 10 d after treatment; for pest or weed control at 31 g/ha: 31 g ai/ha, 0 is no effect, 100 is complete control
# Summary of the method: as §1
# [14] = tested on: ryegrass, Italian (Italian ryegrass, Lolium multiflorum); assay: Test A postemergence; details: Lolium multiflorum, post-emergence, 240 h, Postemergence, read-out: Ryegrass, Italian plant response rating (0 to 100 scale); for pest or weed control at 125 g/ha: 125 g ai/ha, visual rating about 10 d after treatment; for pest or weed control at 31 g/ha: 31 g ai/ha, 0 is no effect, 100 is complete control
# Summary of the method: as §1
# [15] = tested on: wheat (Triticum aestivum); assay: Test A postemergence; details: Triticum aestivum, post-emergence, 240 h, Postemergence, read-out: Wheat plant response rating (0 to 100 scale); for plant injury at 125 g/ha: 125 g ai/ha, visual rating about 10 d after treatment; for plant injury at 31 g/ha: 31 g ai/ha, 0 is no effect, 100 is complete control
# Summary of the method: as §1
# [16] = tested on: barnyardgrass (Echinochloa crus-galli); assay: Test B flooded paddy test; details: Echinochloa crus-galli, 250 g ai/ha, Flood; 0 to 100 scale where 0 is no effect and 100 is complete control; read-out: Barnyardgrass plant response rating
# Summary of the method: (§2)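 Visual ratings (0 none to 100 complete control) are relative to untreated plants, taken 13–15 d after treatment in a greenhouse. Test material went straight into floodwater standing 3 cm above the soil, kept constant, on plants at the 2-leaf stage.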
# [17] = tested on: ducksalad (Heteranthera limosa); assay: Test B flooded paddy test; details: Heteranthera limosa, 250 g ai/ha, Flood; 0 to 100 scale where 0 is no effect and 100 is complete control; read-out: Ducksalad plant response rating
# Summary of the method: as §2
# rice (Oryra sativa) = assay: Test B flooded paddy test; details: Oryza sativa, 250 g ai/ha, Flood; 0 to 100 scale where 0 is no effect and 100 is complete control; read-out: Rice plant response rating
# Summary of the method: as §2
# [18] = tested on: sedge, umbrella (small-flower umbrella sedge, Cyperus difformis); assay: Test B flooded paddy test; details: Cyperus difformis, 250 g ai/ha, Flood; 0 to 100 scale where 0 is no effect and 100 is complete control; read-out: Sedge, Umbrella plant response rating
# Summary of the method: as §2
Structure (SMILES),pest or weed control at 31 g/ha (Kochia (Kochia scoparia) [1]),pest or weed control at 125 g/ha (Kochia (Kochia scoparia) [1]),pest or weed control at 31 g/ha [2],pest or weed control at 125 g/ha [2],pest or weed control at 31 g/ha [3],pest or weed control at 125 g/ha [3],pest or weed control at 31 g/ha [4],pest or weed control at 125 g/ha [4],pest or weed control at 31 g/ha [5],pest or weed control at 125 g/ha [5],pest or weed control at 31 g/ha [6],pest or weed control at 125 g/ha [6],pest or weed control at 125 g/ha [7],pest or weed control at 31 g/ha [7],pest or weed control at 125 g/ha (Kochia (Kochia scoparia) [8]),pest or weed control at 31 g/ha (Kochia (Kochia scoparia) [8]),pest or weed control at 125 g/ha [9],pest or weed control at 31 g/ha [9],pest or weed control at 125 g/ha [10],pest or weed control at 31 g/ha [10],other results
CN1C[C@H](c2cccc(C#N)c2)[C@@H](C(=O)Nc2cccc(F)c2F)C1=O [Compound 1286],0%,60%,100%,100%,100%,100%,0%,20%,0%,50%,20%,60%,40%,20%,30%,0%,90%,90%,40%,0%,plant injury at 125 g/ha (corn (Zea mays)): 80%; plant injury at 31 g/ha (corn (Zea mays)): 20%; pest or weed control at 125 g/ha [11]: 90%; pest or weed control at 31 g/ha [11]: 70%; pest or weed control at 125 g/ha [12]: 20%; pest or weed control at 31 g/ha [12]: 0%; pest or weed control at 125 g/ha [13]: 0%; pest or weed control at 31 g/ha [13]: 0%; pest or weed control at 125 g/ha [14]: 0%; pest or weed control at 31 g/ha [14]: 0%; plant injury at 125 g/ha [15]: 0%; plant injury at 31 g/ha [15]: 0%; pest or weed control at 250 g/ha [16]: 70%; pest or weed control at 250 g/ha [17]: 95%; pest or weed control at 250 g/ha (rice (Oryra sativa)): 0%; pest or weed control at 250 g/ha [18]: 0%
Cc1ccc([C@H]2CN(C)C(=O)[C@@H]2C(=O)Nc2ccccc2)cc1 [Compound 1291],0%,40%,100%,100%,100%,100%,0%,100%,0%,0%,0%,20%,20%,0%,0%,0%,90%,70%,0%,0%,plant injury at 125 g/ha (corn (Zea mays)): 30%; plant injury at 31 g/ha (corn (Zea mays)): 0%; pest or weed control at 125 g/ha [11]: 80%; pest or weed control at 31 g/ha [11]: 70%; pest or weed control at 125 g/ha [12]: 0%; pest or weed control at 31 g/ha [12]: 0%; pest or weed control at 125 g/ha [13]: 0%; pest or weed control at 31 g/ha [13]: 0%; pest or weed control at 125 g/ha [14]: 0%; pest or weed control at 31 g/ha [14]: 0%; plant injury at 125 g/ha [15]: 30%; plant injury at 31 g/ha [15]: 0%; pest or weed control at 250 g/ha [16]: 90%; pest or weed control at 250 g/ha [17]: 100%; pest or weed control at 250 g/ha (rice (Oryra sativa)): 30%; pest or weed control at 250 g/ha [18]: 0%
